Test results published in US11701316B2, “Synergistic anti-inflammatory compositions” (The Procter & Gamble Company, priority 2020, dated 2023).
“And” between values parts separate entries of the source, which are not always exact repeats. Identical values can stand only once.

Tests used:
[1] = tested on: PGE2 release from keratinocytes; experiment: Prostaglandin E2 (PGE2) assay in UVB-stressed TERT keratinocytes, normalized to ATP activity; format: cell-based, human; settings: tKC
Excerpt: Inhibiting the Cell's Inflammation Response to a Stressor—Prostaglandin E2 (“PGE2”) Assay.
PGE2 is a hormone-like substance that is known to participate in modulation of inflammation. Cellular inflammation is associated with a variety of hair, skin and scalp conditions, and thus inhibiting PGE2 activation vis-à-vis cellular inflammation may help treat these types of hair, skin and scalp conditions.
TERT keratinocytes (“tKC”-tKCs are human keratinocytes which have been transfected with the human telomerase reverse transcriptase gene to immortalize the cells) are obtained from Jerry Shay, University of Texas, Southwestern and plated at 40,000 cells/well into 24-well plates in 1 ml/well volume. EpiLife Medium (Life Technologies cat # MEPICFPRF500) supplemented with keratinocyte growth supplement (Life technologies cat #S-001-5) is used as the assay media. The cells are grown to confluence/near confluence, (typically 24 hours after plating 40,000 cells/well in 24 well plate) and then subjected to 15 mJ/cm^2 UVB-stress (typically […] in BioSun). The test compositions (strobilurins, salicylic acid, strobilurins+salicylic acid, and positive control 10 uM idebenone) are added to replace the medium (EpiLife Medium with 0.1% final concentration of DMSO-briefly, 1000× stocks of actives and combinations made in 100% DMSO and diluted into Epilife media 1 to 1000), and the plates are incubated for 18-24 hours. The supernatant is removed from each well, and the cells are rinsed with 2 ml/well medium (without supplements). A Cell Titer-Glo assay (Promega cat # G7571; Madison Wis.) is used to measure ATP activity, is conducted on the cells for normalization. The supernatant is tested in a PGE2 assay (Prostaglandin E2 Assay kit from Cisbio Bioassays cat# 62P2APEB) according to the manufacturer's instructions. The PGE2 results are normalized to ATP activity. The PGE2 quantitation (pg/mL) from the supernatant is divided by the normalization factor (treatment ATP/control ATP).
Example Calculation to Compute PGE2 Inhibition by Strobilurin
Luminescence of vehicle control in ATP assay=704567
Luminescence of strobilurin treatment in ATP assay=678903
Normalization factor for strobilurin treatment=1.038
PGE2 quantitation for vehicle control=2458 pg/mL PGE2
PGE2 quantitation for strobilurin treatment=2347 pg/mL PGE2
Student's T-Test (equal variance, 2 sided) are used to calculate p-values between observed combinations and expected combinations with p-value <0.05 considered statistically significant. Expected combination values are calculated by adding the PGE2 inhibition values of strobilurins alone and salicylic acid alone. Synergy factor is simply the ratio of observed combination/expected combination. Synergy factors greater than 1.0 with a p-value <0.05 are deemed synergistic.

[2] = cited from earlier work
[3] = strobilurin alone, 1 × 10−5 w/v % (100:1), UVB
[4] = strobilurin alone, 1 × 10−6 w/v % (10:1), UVB
[5] = strobilurin alone, 1 × 10−7 w/v % (1:1), UVB
[6] = strobilurin alone, 1 × 10−7 w/v % (column 1:10), 15 mJ/cm2 UVB, 18-24 hours
[7] = strobilurin alone, 5 × 10−6 w/v % (50:1), UVB

CO/N=C(/C1=NOCCO1)c1ccccc1Oc1ncnc(Oc2ccccc2Cl)c1F [fluoxastrobin]
% PGE2 Inhibition [1, 3]: 42% | % PGE2 Inhibition [1, 4]: 9% | % PGE2 Inhibition [1, 5]: 5% | % PGE2 Inhibition [1, 6]: 5% | % PGE2 Inhibition [1, 7]: 17%

O=C(O)c1ccccc1O [salicylic acid, reference compound]
% PGE2 Inhibition ([1]; salicylic acid alone, 1 × 10−6 (column 1:10), UVB): 32% and 31.4% | % PGE2 Inhibition ([1]; salicylic acid alone, 1 × 10−7 (1:1), UVB): 18% and 16.2% | % PGE2 Inhibition ([1]; salicylic acid alone, 1 × 10−7 (10:1), UVB): 18% and 16.2% | % PGE2 Inhibition ([1]; salicylic acid alone, 1 × 10−7 (50:1), UVB): 18% and 16.2% | % PGE2 Inhibition ([1]; salicylic acid alone, 1 × 10−7 (100:1), UVB): 18% and 16.2%

CO/C=C(/C(=O)OC)c1ccccc1COc1cccc(C(F)(F)F)n1 [picoxystrobin]
% PGE2 Inhibition [1, 3]: 24% | % PGE2 Inhibition [1, 4]: 12% | % PGE2 Inhibition [1, 5]: 6% | % PGE2 Inhibition [1, 6]: 6% | % PGE2 Inhibition [1, 7]: 18%

CON=C(C(=O)OC)c1ccccc1CON=C(C)c1cccc(C(F)(F)F)c1 [trifloxystrobin]
% PGE2 Inhibition [1, 3]: 8% | % PGE2 Inhibition [1, 4]: 7% | % PGE2 Inhibition [1, 5]: 5% | % PGE2 Inhibition [1, 6]: 5% | % PGE2 Inhibition [1, 7]: 8%

COC(=O)N(OC)c1ccccc1COc1ccn(-c2ccc(Cl)cc2)n1 [pyraclostrobin]
% PGE2 Inhibition [1, 3]: 70.4% | % PGE2 Inhibition [1, 4]: 46.0% | % PGE2 Inhibition [1, 5]: 30.4% | % PGE2 Inhibition [1, 6]: 30.4% | % PGE2 Inhibition [1, 7]: 55.3%

CO/N=C(/C(=O)OC)c1ccccc1COc1ccccc1C [kresoxim methyl]
% PGE2 Inhibition [1, 3]: 12% | % PGE2 Inhibition [1, 4]: 7% | % PGE2 Inhibition [1, 5]: 5% | % PGE2 Inhibition [1, 6]: 5% | % PGE2 Inhibition [1, 7]: 9%

CNC(=O)/C(=N/OC)c1ccccc1CO/N=C(C)/C(=N/OC)C(/C)=N/OC [orysastrobin]
% PGE2 Inhibition [1, 3]: 36% | % PGE2 Inhibition [1, 4]: 12% | % PGE2 Inhibition [1, 5]: 6% | % PGE2 Inhibition [1, 6]: 6% | % PGE2 Inhibition [1, 7]: 18%

CNC(=O)/C(=N/OC)c1ccccc1COc1cc(C)ccc1C [dimoxystrobin]
% PGE2 Inhibition [1, 3]: 13% | % PGE2 Inhibition [1, 4]: 7% | % PGE2 Inhibition [1, 5]: 4% | % PGE2 Inhibition [1, 6]: 4% | % PGE2 Inhibition [1, 7]: 11%

CO/C=C(/C(=O)OC)c1ccccc1Oc1cc(Oc2ccccc2C#N)ncn1 [azoxystrobin]
solubility in water [2]: low | % PGE2 Inhibition [1, 3]: 58% | % PGE2 Inhibition [1, 4]: 22% | % PGE2 Inhibition [1, 5]: 8% | % PGE2 Inhibition [1, 6]: 8% | % PGE2 Inhibition [1, 7]: 37%
